Reference: patent US8017318B1, “Method for detecting and/or quantifying a known function from a nucleic acid sample” (priority 1998, dated 2011)

Biological target: T1, β-lactamase TEM-1 (Escherichia coli, UniProt P62593)
T1 construct: made in house; host or cells: cell-free in vitro translation as described by Zubay (microbial system)
Test: "resistance to clavulanic acid" beta-lactamase activity test with nitrocephine on in vitro translated enzyme
Type: biochemical
Details: sample 1 (100% germs resistant to antibiotics only, 0% double resistance); 1 μl clavulanic acid, 3 minutes at 25° C., then nitrocephine; 486 nm
Method: 10 μl of culture at DO600.2.3 were centrifuged and each pellet was resuspended into 12 μl of cellular lysis buffer (10 mM Tris HCl pH 7.5, 1 mM EDTA, 50 μg/ml proteinase K) and incubated 15 minutes at 55° C. then 15 minutes at 80° C. 9 μl of each of these lysates was added to a PCR amplification mixture that permitted amplification of the gene conferring monoresistance and of the gene conferring polyresistance, as well as of the sequences permitting their in vitro expression. 5 μl of each PCR amplification were used to carry out an in vitro transcription as described by Gurevich et al. (Gurevich V. A., Pokrovskaya I. D., Obukhova T. A. and Zozulya S., 1991, Preparative in vitro mRNA synthesis using SP6 and T7 polymerases, Anal. Biochem., 195, 207-213) 10 μl of each transcription was used to translate in vitro the proteins as described by Zubay (Zubay G., 1973, In vitro synthesis of protein in microbial systems, Ann. Rev. Genet., 7, 267-287) to a final volume of 100 μl
Two types of activity tests were carried out: • A measurement of the “total” beta-lactamase activity by using as substrate a chromogenic antibiotic: nitrocephine. […] The reaction was followed by monitoring absorbance changes at 486 nm. • A measurement of the “resistance to clavulanic acid” activity by using as substrate a chromogenic antibiotic: nitrocephine and a given concentration of clavulanic acid. […]

T1 sequence (P62593 24-286 limits assumed): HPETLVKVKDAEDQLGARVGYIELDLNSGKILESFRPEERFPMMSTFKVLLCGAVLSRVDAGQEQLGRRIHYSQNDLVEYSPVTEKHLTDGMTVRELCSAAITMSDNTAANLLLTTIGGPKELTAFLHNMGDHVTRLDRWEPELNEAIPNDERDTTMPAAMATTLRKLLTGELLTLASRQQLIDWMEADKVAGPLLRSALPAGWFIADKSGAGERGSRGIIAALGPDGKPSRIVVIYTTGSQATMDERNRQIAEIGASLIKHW

O=C(O)[C@H]1/C(=C/CO)O[C@@H]2CC(=O)N21 [clavulanic acid]
beta-lactamase activity detected in the presence of clavulanic acid: no activity is detected
